Patent US20110034434A1, “PRODRUGS OF FUSED HETEROCYCLIC INHIBITORS OF D-AMINO ACID OXIDASE” (SEPRACOR INC., priority 2009, published 2011)

system: D-serine; test: PK-PD evaluation in rats: D-serine levels in cerebellum after oral dosing; format: in vivo; settings: rat cerebellum, 6 hours after PO dosing, dose normalized to 10 mg/kg of the acid; mean ± spread (n)
Procedure: Rats (Harlan male Sprague) (N=3) were dosed orally with an amount of test compound, suspended in 45% (w/v) hydroxy-β-cyclodextrin vehicle, dose normalized to 10 mg/kg of the corresponding carboxylic acid. Additional male cannulated rats (N=3) were dosed orally with the parent carboxylic acid, suspended in 45% (w/v) hydroxy-β-cyclodextrin vehicle, at 10 mg/kg. Animals were sacrificed at pre-determined time points (e.g., 0.5, 2 and/or 6 hours post administration) with an N=3 at each time point. At sacrifice, trunk blood was collected into tubes containing potassium EDTA, which were then centrifuged to permit isolation of plasma. The cerebellum was dissected from each animal. Plasma and cerebellum samples were stored at −80° C. until samples were analyzed using a SCIEX API2000 or SCIEX API5000 LC/MS/MS. Samples were analyzed for the amount of corresponding parent acid, D-serine, and/or the amount of test compound.
Conversion of test compounds to 4H-furo[3,2-b]pyrrole-5-carboxylic acid (“acid”; 77) in rats was evaluated according to General Procedure 12. 4H-furo[3,2-b]pyrrole-5-carboxylic acid and D-serine levels in plasma and cerebellum were measured. Animals were sacrificed at 6 hours post administration. In Table 6, “[D-serine] cerebellum” refers to D-serine levels, in nmol/g, in the rat cerebellum. In Table 6, “[acid] cerebellum” refers to the concentration, in μM, of the 4H-furo[3,2-b]pyrrole-5-carboxylic acid in the cerebellum. In Table 6, “[acid] plasma” refers to the concentration, in μM, of the 4H-furo[3,2-b]pyrrole-5-carboxylic acid in the plasma. The row labeled “acid”, denotes the data obtained from dosing 4H-furo[3,2-b]pyrrole-5-carboxylic acid. The row labeled “vehicle” denotes the data obtained from dosing vehicle, and the remaining row in the table denote the data obtained from dosing the test compounds.

Compound	[D-serine] cerebellum
CN(C)C(=O)COC(=O)c1cc2occc2[nH]1 [compound 20, 2-(dimethylamino)-2-oxoethyl 4H-furo[3,2-b]pyrrole-5-carboxylate]	19 ± 0.8(6) nmol/g
O=C(OCC(=O)N1CCOCC1)c1cc2occc2[nH]1 [compound 21, 2-morpholino-2-oxoethyl 4H-furo[3,2-b]pyrrole-5-carboxylate]	19 ± 1.0(6) nmol/g
O=C(OCCN1CCOCC1)c1cc2occc2[nH]1 [compound 30, 2-morpholinoethyl 4H-furo[3,2-b]pyrrole-5-carboxylate]	14 ± 1.2(3) nmol/g
CC(OC(=O)c1cc2occc2[nH]1)OC(=O)C(C)C (stereo not shown) [compound 35, 1-(isobutyryloxy)ethyl 4H-furo[3,2-b]pyrrole-5-carboxylate]	16 ± 0.9(3) nmol/g
CC(OC(=O)OC1CCCCC1)OC(=O)c1cc2occc2[nH]1 (stereo not shown) [compound 39, 1-(cyclohexyloxycarbonyloxy)ethyl 4H-furo[3,2-b]pyrrole-5-carboxylate]	17 ± 2.6(3) nmol/g
Cc1oc(=O)oc1COC(=O)c1cc2occc2[nH]1 [compound 72, (5-methyl-2-oxo-1,3-dioxol-4-yl)methyl 4H-furo[3,2-b]pyrrole-5-carboxylate]	21 ± 3.5(9) nmol/g

system: not listed separately; test: Hydrolysis rate of test compounds in pH 7.4 and 2.0 aqueous solution; format: physicochemical; settings: 0.05 M sodium phosphate buffer pH 7.4, over 6 hours, HPLC
Procedure: 10 mM DMSO solutions of test compounds were diluted with a 0.05 M sodium phosphate buffer (pH 7.4) or water adjusted with phosphoric acid to pH 2.0, with a final concentration of 0.013 mg/mL. Samples were analyzed over either 2 or 6 hours, by HPLC.
The amount of test compound and the corresponding acid were determined. The rate of conversion of the test compound was calculated based on formation of the corresponding acid and loss of parent.
The rate of hydrolysis of test compounds to 4H-furo[3,2-b]pyrrole-5-carboxylic acid was evaluated in pH 7.4 aqueous solution over 6 hours, and in pH 2.0 aqueous solution over 2 hours, according to General Procedure 14.

Hydrolysis rate at pH 7.4	Compound
No hydrolysis	CN(C)C(=O)COC(=O)c1cc2occc2[nH]1 [compound 20, 2-(dimethylamino)-2-oxoethyl 4H-furo[3,2-b]pyrrole-5-carboxylate]
No hydrolysis	O=C(OCC(=O)N1CCOCC1)c1cc2occc2[nH]1 [compound 21, 2-morpholino-2-oxoethyl 4H-furo[3,2-b]pyrrole-5-carboxylate]
0.20%/hr	Cc1oc(=O)oc1COC(=O)c1cc2occc2[nH]1 [compound 72, (5-methyl-2-oxo-1,3-dioxol-4-yl)methyl 4H-furo[3,2-b]pyrrole-5-carboxylate]

Continued, compound first:

Compound	Hydrolysis rate at pH 7.4
O=C(OCCN1CCOCC1)c1cc2occc2[nH]1 [compound 30, 2-morpholinoethyl 4H-furo[3,2-b]pyrrole-5-carboxylate]	No hydrolysis
CC(OC(=O)c1cc2occc2[nH]1)OC(=O)C(C)C (stereo not shown) [compound 35, 1-(isobutyryloxy)ethyl 4H-furo[3,2-b]pyrrole-5-carboxylate]	3.46%/hr
CC(OC(=O)OC1CCCCC1)OC(=O)c1cc2occc2[nH]1 (stereo not shown) [compound 39, 1-(cyclohexyloxycarbonyloxy)ethyl 4H-furo[3,2-b]pyrrole-5-carboxylate]	0.21%/hr

same assay, conditions: water adjusted with phosphoric acid to pH 2.0, over 2 hours, HPLC

Hydrolysis rate at pH 2.0	Compound
No hydrolysis	CN(C)C(=O)COC(=O)c1cc2occc2[nH]1 [compound 20, 2-(dimethylamino)-2-oxoethyl 4H-furo[3,2-b]pyrrole-5-carboxylate]
No hydrolysis	O=C(OCC(=O)N1CCOCC1)c1cc2occc2[nH]1 [compound 21, 2-morpholino-2-oxoethyl 4H-furo[3,2-b]pyrrole-5-carboxylate]
No hydrolysis	O=C(OCCN1CCOCC1)c1cc2occc2[nH]1 [compound 30, 2-morpholinoethyl 4H-furo[3,2-b]pyrrole-5-carboxylate]
No hydrolysis	Cc1oc(=O)oc1COC(=O)c1cc2occc2[nH]1 [compound 72, (5-methyl-2-oxo-1,3-dioxol-4-yl)methyl 4H-furo[3,2-b]pyrrole-5-carboxylate]
